From paper PMC9304322, “Targeting retinoic acid receptor alpha-corepressor interaction activates chaperone-mediated autophagy and protects against retinal degeneration” (Nature Communications, 2022)
Where “and” joins values, the source holds several entries; their conditions need not be identical. Equal values may be shown once.

Columns and labels:
[1] = test system: neuroblastoma cell line N2a expressing the KFERQ-PS-Dendra reporter; experiment: CMA activity, KFERQ-PS-Dendra reporter in N2a cells; type: cell-based, mouse; parameters: CMA activity, mean (Fig. S2a): unit not given here
Method: (§1) Cells were transduced with lentivirus carrying the KFERQ-PS-Dendra reporter as before. Cells were photoactivated by exposure to a 3.5 mA (current constant) light emitting diode (LED: Norlux, 405 nm) for 3 min and then plated in glass-bottom 96 well plates. At the desired times, cells were fixed with 4% PFA and imaged using high-content microscopy (Operetta system, Perkin Elmer). Images were quantified using the manufacturer’s software in a minimum of 1,200 cells in 9 independent fields per well. […] This was particularly important in the case of primary human cells where the efficiency of transduction was ~65%. To avoid confounding effects for drug-induced changes in cell volume or adherence to the plate that could bring a fraction of the cells per field outside of focus, we set a threshold to count only […] that have at least 1/10 of the average number of […] detected in the untreated wells for each cell type (3–4 puncta/cell in the case of NIH3T3 and N2a cells and 5 puncta/cell in primary human fibroblasts).

[2] = test system: primary human fibroblast expressing the KFERQ-PS-Dendra reporter; experiment: CMA activity, KFERQ-PS-Dendra reporter in primary human fibroblasts; type: cell-based; parameters: key to CMA activity, mean (Fig. S2c): puncta per cell
Method: as §1

[3] = test system: CMA network components in NIH3T3 cells; experiment: qPCR of CMA network components and CMA activation score; type: cell-based, mouse; parameters: LAMP2A mRNA level / HSP90AB1 mRNA level / HSP40 mRNA level / RAC1 mRNA level / AKT1 mRNA level / AKT2 mRNA level / CTSA mRNA level / NFATC1 mRNA level / HSC70 mRNA level / NCOR1 mRNA level / NFE2L2 mRNA level / RAB11A mRNA level / RARa mRNA level / HSP90AA1 mRNA level / EEF1A1 mRNA level / RICTOR mRNA level: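 fold of untreated cells after 20 µM for 24 h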; key to CMA activation score: weighted (LAMP-2A ×2), directed (±1) average of CMA network expression; conditions: individual replicate values;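 for AKT1 mRNA level: fold of untreated cells after 20 µM for 24 h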;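 for AKT2 mRNA level: fold of untreated cells after 20 µM for 24 h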;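 for CTSA mRNA level: fold of untreated cells after 20 µM for 24 h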;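 for HSC70 mRNA level: fold of untreated cells after 20 µM for 24 h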;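 for HSP40 mRNA level: fold of untreated cells after 20 µM for 24 h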;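 for HSP90AA1 mRNA level: fold of untreated cells after 20 µM for 24 h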;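 for HSP90AB1 mRNA level: fold of untreated cells after 20 µM for 24 h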;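 for LAMP2A mRNA level: fold of untreated cells after 20 µM for 24 h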;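 for NCOR1 mRNA level: fold of untreated cells after 20 µM for 24 h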;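 for NFATC1 mRNA level: fold of untreated cells after 20 µM for 24 h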;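 for NFE2L2 mRNA level: fold of untreated cells after 20 µM for 24 h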;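 for PHLPP1 mRNA level: fold of untreated cells after 20 µM for 24 h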;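 for RAB11A mRNA level: fold of untreated cells after 20 µM for 24 h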;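 for RAC1 mRNA level: fold of untreated cells after 20 µM for 24 h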;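 for RARa mRNA level: fold of untreated cells after 20 µM for 24 h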
Method: RNA was extracted from individual retinas or tissue sections (brain, liver). Total RNA from retinas was extracted using TRIzol Reagent (Invitrogen, # 15596-018), and reverse transcription was performed using the High-Capacity cDNA Reverse Transcription Kit (Applied Biosystems, # 4374966) according to the manufacturer’s instructions. Quantitative real-time PCR was performed in a Light Cycler 480 Instrument (Roche) with Taqman LightCycler 480 probes Master Mix (Roche, #4887301001) using Taqman assays (Life Technologies). For cells in culture, RNA was extracted using RNeasy Plus Mini Kit (Qiagen, #74034), and reverse transcription was performed using Superscript III (Invitrogen, #18080051). Quantitative RT-PCR analysis were performed using Power SYBR Green PCR Master Mix (Applied Biosystems, #4368708) on a StepOne Plus Real-Time PCR System (Applied Biosystems). Mm01184405_m1 probe (Thermofisher) was used for rhodopsin and the sequence of all the other probes used for qPCR is included in Supplementary Table 2.
CMA index[14] was calculated using data set from[23]–[25]. Briefly, each element of the CMA network[13] has attributed a weight. As LAMP-2A is the rate-limiting component of CMA, it was given a weight of 2. Every other element received a weight of 1. Then, every element was attributed direction score that is +1 or −1 based on the known effect of a given element on CMA activity. The score was then calculated as the weighted/ directed average of expression counts of every element of the CMA network.

[4] = Fig. 2d (left), one sample t test

SMILES: Cc1ccc(C2=Nc3ccc(Cl)cc3OC2)cc1 [AR7, reference compound]
- CMA activity, mean relative to concentration 0 = 1 (Fig. S2b) ([1]; 12+12w, concentration 0.2): 0.9288
- CMA activity, mean relative to concentration 0 = 1 (Fig. S2b) ([1]; 12+12w, concentration 2): 0.9525
- CMA activity, mean relative to concentration 0 = 1 (Fig. S2b) ([1]; 12+12w, concentration 5): 0.9471
- CMA activity, mean relative to concentration 0 = 1 (Fig. S2b) ([1]; 12+12w, concentration 10): 0.8786
- CMA activity, mean relative to concentration 0 = 1 (Fig. S2b) ([1]; 12+12w, concentration 20): 0.875
- CMA activity, mean relative to concentration 0 = 1 (Fig. S2b) ([1]; 12+12w, concentration 30): 0.9362
- CMA activity, mean (Fig. S2a) ([1]; 12h, concentration 0.02): 5.372
- CMA activity, mean (Fig. S2a) ([1]; 12h, concentration 0.2): 5.3273
- CMA activity, mean relative to concentration 0 = 1 (Fig. S2b) ([1]; 12h, concentration 0.2): 1.02
- CMA activity, mean (Fig. S2a) ([1]; 12h, concentration 2): 5.394
- CMA activity, mean relative to concentration 0 = 1 (Fig. S2b) ([1]; 12h, concentration 2): 1.033
- CMA activity, mean (Fig. S2a) ([1]; 12h, concentration 5): 6.224
- CMA activity, mean relative to concentration 0 = 1 (Fig. S2b) ([1]; 12h, concentration 5): 1.192
- CMA activity, mean (Fig. S2a) ([1]; 12h, concentration 10): 5.944
- CMA activity, mean relative to concentration 0 = 1 (Fig. S2b) ([1]; 12h, concentration 10): 1.138
- CMA activity, mean (Fig. S2a) ([1]; 12h, concentration 20): 6.2128
- CMA activity, mean relative to concentration 0 = 1 (Fig. S2b) ([1]; 12h, concentration 20): 1.19
- CMA activity, mean (Fig. S2a) ([1]; 12h, concentration 30): 6.043
- CMA activity, mean relative to concentration 0 = 1 (Fig. S2b) ([1]; 12h, concentration 30): 1.157
- CMA activity, mean (Fig. S2a) ([1]; 12h, concentration 40): 6.596
- CMA activity, mean (Fig. S2a) ([1]; 12h, concentration 50): 6.394
- CMA activity, mean (Fig. S2a) ([1]; 12h, concentration 60): 6.271
- CMA activity, mean (Fig. S2a) ([1]; 24h, concentration 0.02): 5.48
- CMA activity, mean (Fig. S2a) ([1]; 24h, concentration 0.2): 5.351
- CMA activity, mean relative to concentration 0 = 1 (Fig. S2b) ([1]; 24h, concentration 0.2): 0.8724
- CMA activity, mean (Fig. S2a) ([1]; 24h, concentration 2): 5.879
- CMA activity, mean relative to concentration 0 = 1 (Fig. S2b) ([1]; 24h, concentration 2): 0.9586
- CMA activity, mean (Fig. S2a) ([1]; 24h, concentration 5): 6.0743
- CMA activity, mean relative to concentration 0 = 1 (Fig. S2b) ([1]; 24h, concentration 5): 0.9904
- CMA activity, mean (Fig. S2a) ([1]; 24h, concentration 10): 6.105
- CMA activity, mean relative to concentration 0 = 1 (Fig. S2b) ([1]; 24h, concentration 10): 0.9953
- CMA activity, mean (Fig. S2a) ([1]; 24h, concentration 20): 6.658
- CMA activity, mean relative to concentration 0 = 1 (Fig. S2b) ([1]; 24h, concentration 20): 1.086
- CMA activity, mean (Fig. S2a) ([1]; 24h, concentration 30): 7.455
- CMA activity, mean relative to concentration 0 = 1 (Fig. S2b) ([1]; 24h, concentration 30): 1.2156
- CMA activity, mean (Fig. S2a) ([1]; 24h, concentration 40): 8.122
- CMA activity, mean (Fig. S2a) ([1]; 24h, concentration 50): 8.426
- CMA activity, mean (Fig. S2a) ([1]; 24h, concentration 60): 8.941
- CMA activity, mean (Fig. S2c) ([2]; concentration 0.02): 24.0456
- CMA activity, mean (Fig. S2c) ([2]; concentration 0.2): 28.2677
- CMA activity, mean (Fig. S2c) ([2]; concentration 2): 18.5469
- CMA activation in human cells ([2]; in words): very discrete
- AKT1 mRNA level [3, 4]: 1.38 and 0.89 and 1.44 and 0.86 and 1.06 and 1.51 and 1.42
- AKT2 mRNA level [3, 4]: 1.44 and 0.97 and 1.15 and 0.87 and 1.19 and 1.60 and 1.34
- CTSA mRNA level [3, 4]: 1.25 and 1.34 and 1.07 and 0.82 and 1.13 and 1.21 and 1.33
- EEF1A1 mRNA level [3, 4]: 1.17 and 1.49 and 1.26 and 1.78 and 0.79 and 1.54
- HSC70 mRNA level [3, 4]: 1.32 and 1.34 and 1.36 and 1.12 and 1.37 and 1.41
- HSP40 mRNA level [3, 4]: 0.98 and 1.05 and 1.10 and 0.85 and 0.99 and 0.72 and 1.06
- HSP90AA1 mRNA level [3, 4]: 1.28 and 0.87 and 0.85 and 0.56 and 0.80 and 0.78 and 0.86
- HSP90AB1 mRNA level [3, 4]: 0.93 and 0.89 and 0.92 and 0.63 and 0.94 and 0.80
- LAMP2A mRNA level [3, 4]: 1.15 and 1.53 and 1.46 and 1.28 and 1.31 and 1.13 and 1.27
- NCOR1 mRNA level [3, 4]: 1.16 and 1.11 and 1.26 and 0.79 and 0.85 and 0.87 and 1.01
- NFATC1 mRNA level [3, 4]: 1.04 and 0.72 and 1.34 and 0.83 and 1.03 and 1.25 and 1.28
- NFE2L2 mRNA level [3, 4]: 1.81 and 0.87 and 0.79 and 0.50 and 0.68 and 0.86 and 1.01
- PHLPP1 mRNA level [3, 4]: 1.42 and 1.17 and 1.27 and 2.72 and 1.10 and 1.18 and 1.28
- RAB11A mRNA level [3, 4]: 1.10 and 1.22 and 1.00 and 0.72 and 0.93 and 1.01
- RAC1 mRNA level [3, 4]: 1.21 and 1.55 and 1.26 and 1.08 and 1.31 and 1.54 and 1.42
- RARa mRNA level [3, 4]: 0.99 and 0.33 and 1.02 and 0.95 and 0.90 and 0.86
- RICTOR mRNA level [3, 4]: 0.52 and 1.27 and 0.85 and 0.95 and 1.43
- CMA activation score ([3]; Fig. 2d (right)): -0.03086 and 0.1313 and 0.07179 and -0.1523
